# Assay results reported in US20240293416A1, “TREATMENT OF LIVER DISORDERS WITH A THR-ß AGONIST” (Terns Pharmaceuticals, Inc., priority 2021, published 2024).
# Marks after values point to notes of the source that are not given here.
# Assay: Single ascending dose trial: adverse event and safety monitoring
# Format: in vivo, human
# Conditions: fasted, n = 6
# Method: A single-ascending dose clinical trial of Compound 1 (potassium salt) was performed.
smiles,measurement,setting,value
N#Cc1nn(-c2cc(Cl)c(Oc3n[nH]c(=O)c4ccccc34)c(Cl)c2)c(=O)[nH]c1=O [Compound 2],AEs by relationship to drug: Not related,single 3 mg dose,2 (33.3%)
same,AEs by relationship to drug: Possibly related,single 3 mg dose,0
same,AEs by relationship to drug: Related,single 3 mg dose,0
same,AEs by relationship to drug: Unlikely related,single 3 mg dose,0
same,"Any AE, all CTCAE grades",single 3 mg dose,2 (33.3%)
same,CTCAE Grade 1,single 3 mg dose,0
same,CTCAE Grade 2,single 3 mg dose,0
same,CTCAE Grade 3 or higher,single 3 mg dose,0
same,Serious AEs,single 3 mg dose,0
same,AEs by relationship to drug: Not related,single 10 mg dose,0
same,AEs by relationship to drug: Possibly related,single 10 mg dose,0
same,AEs by relationship to drug: Related,single 10 mg dose,0
same,AEs by relationship to drug: Unlikely related,single 10 mg dose,0
same,"Any AE, all CTCAE grades",single 10 mg dose,0
same,CTCAE Grade 1,single 10 mg dose,0
same,CTCAE Grade 2,single 10 mg dose,0
same,CTCAE Grade 3 or higher,single 10 mg dose,0
same,Serious AEs,single 10 mg dose,0
same,AEs by relationship to drug: Not related,single 30 mg dose,1 (16.7%)
same,AEs by relationship to drug: Possibly related,single 30 mg dose,1 (16.7%)*
same,AEs by relationship to drug: Related,single 30 mg dose,0
same,AEs by relationship to drug: Unlikely related,single 30 mg dose,0
same,"Any AE, all CTCAE grades",single 30 mg dose,2 (33.3%)
same,CTCAE Grade 1,single 30 mg dose,1 (16.7%)
same,CTCAE Grade 2,single 30 mg dose,1 (16.7%)
same,CTCAE Grade 3 or higher,single 30 mg dose,0
same,Serious AEs,single 30 mg dose,0
same,AEs by relationship to drug: Not related,single 60 mg dose,0
same,AEs by relationship to drug: Possibly related,single 60 mg dose,0
same,AEs by relationship to drug: Related,single 60 mg dose,0
same,AEs by relationship to drug: Unlikely related,single 60 mg dose,0
same,"Any AE, all CTCAE grades",single 60 mg dose,0
same,CTCAE Grade 1,single 60 mg dose,0
same,CTCAE Grade 2,single 60 mg dose,0
same,CTCAE Grade 3 or higher,single 60 mg dose,0
same,Serious AEs,single 60 mg dose,0
